# Laboratory results from paper PMC9769880, “Diverse Sensory Repertoire of Paralogous Chemoreceptors Tlp2, Tlp3, and Tlp4 in Campylobacter jejuni” (Microbiology Spectrum, 2022).
# “Also recorded” adds a separate entry of the source. Where two headings read alike, the source gives them in different places.
# Key:
# Tlp3 [1] = molecular target: T1, Tlp3 (Campylobacter jejuni, UniProt Q0P864); test: biochemical; format: binding
# Protocol: His-tagged proteins (Tlp2, -3, and -4) were prepared as previously described ([11]) DNA segments encoding the periplasmic sensory domains (33 to 286 amino acids) of Tlp2 and (38 to 297 amino acids) of Tlp4 were amplified (see Table S7), ligated into pGEM-T Easy (Promega) and subcloned into pET-19b (Novagen) (see Table S6). Recombinant proteins were expressed in E. coli BL21(DE3) using 1 mM IPTG (isopropyl-β-D-thiogalactopyranoside) and purified using His-select-nickel chromatography as described previously ([8], [11]). […] Protein concentrations were determined using a NanoDrop spectrophotometer (Thermo Fisher).
# (§1) Surface plasmon resonance (SPR) experiments were performed as described previously ([10], [11]) with the following modifications. […] All ligands were prepared in PBS (pH 7.2) and serially diluted from 0.2 to 0.0125 mM. A 10-min dissociation period was allocated after the introduction of each analyte. SPR experiments were performed in single-cycle kinetics mode using the BIAcore S200 biosensor system (Cytiva) at 25°C in PBS (pH 7.2) at a flow rate of 30 μL/min. The equilibrium dissociation constant (KD) for each analyte was determined using BIAcore S200 Evaluation software with a report point 4 s after the injection stop to account for the bulk transfer of the small molecule against a large amount of immobilized protein (as shown in Fig. S5).
# Tlp3^LBD D169A = Tlp3^LBD D169A (Campylobacter jejuni, UniProt Q0P864, D169A); test: biochemical
# Tlp3^LBD D169A, sequence (Q0P864 41-290 D169A): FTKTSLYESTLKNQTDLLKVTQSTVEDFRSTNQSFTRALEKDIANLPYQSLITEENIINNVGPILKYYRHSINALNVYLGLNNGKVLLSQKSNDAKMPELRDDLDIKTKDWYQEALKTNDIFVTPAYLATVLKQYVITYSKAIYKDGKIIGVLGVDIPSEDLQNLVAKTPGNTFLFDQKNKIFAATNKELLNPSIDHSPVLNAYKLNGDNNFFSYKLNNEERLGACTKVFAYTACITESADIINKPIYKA
# Tlp4 [2] = molecular target: T2, Tlp4 (Campylobacter jejuni, UniProt Q0PBP3); test: biochemical; format: binding
# T2 sequence (Q0PBP3 entry or part of it): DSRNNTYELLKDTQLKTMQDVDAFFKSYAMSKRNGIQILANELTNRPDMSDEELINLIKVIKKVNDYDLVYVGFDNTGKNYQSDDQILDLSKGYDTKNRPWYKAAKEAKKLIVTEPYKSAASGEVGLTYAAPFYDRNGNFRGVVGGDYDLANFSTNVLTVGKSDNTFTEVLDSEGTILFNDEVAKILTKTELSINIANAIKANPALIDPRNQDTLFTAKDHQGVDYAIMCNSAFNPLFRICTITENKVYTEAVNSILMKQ
# Protocol: (§2) His-tagged proteins (Tlp2, -3, and -4) were prepared as previously described ([11]) DNA segments encoding the periplasmic sensory domains (33 to 286 amino acids) of Tlp2 and (38 to 297 amino acids) of Tlp4 were amplified (see Table S7), ligated into pGEM-T Easy (Promega) and subcloned into pET-19b (Novagen) (see Table S6). Recombinant proteins were expressed in E. coli BL21(DE3) using 1 mM IPTG (isopropyl-β-D-thiogalactopyranoside) and purified using His-select-nickel chromatography as described previously ([8], [11]). The purity of the proteins was confirmed by SDS-PAGE and Western blot analysis with anti-His antibodies (Bio-Rad). Protein concentrations were determined using a NanoDrop spectrophotometer (Thermo Fisher).
# as §1, with “modifications. Briefly, purified proteins were diluted to 0.15 μM in sodium acetate (pH 4.0) and immobilized onto an active flow cell of a CM5 sensor chip with a flow rate of 5 μL/min for 7 min of contact time using a standard amine coupling protocol. Immobilized protein levels for all three proteins ranged from 6028.3 to 9779.3 response units (RU) providing a minimum expected response maximum (RMax) between 20 and 50 RU for the small molecules tested.” for “modifications.”
# Tlp2 [3] = molecular target: T3, Tlp2 (Campylobacter jejuni, UniProt Q0PBZ3); test: biochemical; format: binding
# T3 sequence (Q0PBZ3 entry or part of it): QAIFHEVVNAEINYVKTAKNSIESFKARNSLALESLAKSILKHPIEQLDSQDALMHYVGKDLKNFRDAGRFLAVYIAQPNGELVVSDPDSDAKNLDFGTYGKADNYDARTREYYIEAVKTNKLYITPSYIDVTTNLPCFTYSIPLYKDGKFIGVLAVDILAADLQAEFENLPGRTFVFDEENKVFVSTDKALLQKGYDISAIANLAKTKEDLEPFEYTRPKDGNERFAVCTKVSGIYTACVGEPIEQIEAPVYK
# Protocol: as §2
# as §1, with “modifications. Briefly, purified proteins were diluted to 0.15 μM in sodium acetate (pH 4.0) and immobilized onto an active flow cell of a CM5 sensor chip with a flow rate of 5 μL/min for 7 min of contact time using a standard amine coupling protocol. Immobilized protein levels for all three proteins ranged from 6028.3 to 9779.3 response units (RU) providing a minimum expected response maximum (RMax) between 20 and 50 RU for the small molecules tested.” for “modifications.”
# Tlp3^LBD W151A = Tlp3^LBD W151A (Campylobacter jejuni, UniProt Q0P864, W151A); test: biochemical
# Tlp3^LBD W151A, sequence (Q0P864 41-290 W151A): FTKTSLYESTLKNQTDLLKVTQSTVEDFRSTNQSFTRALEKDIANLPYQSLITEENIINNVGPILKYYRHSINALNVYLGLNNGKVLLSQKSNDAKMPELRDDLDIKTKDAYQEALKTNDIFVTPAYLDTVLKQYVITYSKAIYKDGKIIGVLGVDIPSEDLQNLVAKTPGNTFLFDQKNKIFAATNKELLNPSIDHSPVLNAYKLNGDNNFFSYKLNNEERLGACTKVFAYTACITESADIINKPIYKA
# Tlp3^LBD K149A = Tlp3^LBD K149A (Campylobacter jejuni, UniProt Q0P864, K149A); test: biochemical
# Tlp3^LBD K149A, sequence (Q0P864 41-290 K149A): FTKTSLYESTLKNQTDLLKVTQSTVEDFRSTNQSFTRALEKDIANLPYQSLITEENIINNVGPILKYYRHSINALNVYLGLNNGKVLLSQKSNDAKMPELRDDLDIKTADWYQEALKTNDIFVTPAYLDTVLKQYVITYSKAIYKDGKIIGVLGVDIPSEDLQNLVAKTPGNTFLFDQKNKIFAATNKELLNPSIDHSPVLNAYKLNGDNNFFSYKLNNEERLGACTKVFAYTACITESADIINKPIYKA
# Tlp3 [4] = format: cell-based, C. jejuni 11168-O; details: chemotaxis of mutant compared to WT strain
# Protocol: (§3) The biological relevance of the binding specificities of the Tlp2,3,4 cluster was assessed by examining chemotactic responses of C. jejuni 11168-O tlp2, tlp3, and tlp4 wild-type (WT) and mutant strains using a nutrient-depleted chemotaxis assay. All ligands, with the exception of lysine and cysteine, interacted with Tlp2 and Tlp4 as attractants (Table 1), showing an ~1- to ~2-log decrease (P < 0.05) in migration toward the ligand compared to the WT strain.
# (§4) Chemotaxis assays—the nutrient-depleted chemotaxis assay and the modified hard agar plug assay (tHAP)—were performed as previously described ([11], [34]). The chemotactic responses of all isogenic strains were compared to that of the C. jejuni 11168-O wild-type strain to distinguish between chemoattractants and chemorepellents. For the nutrient-depleted chemotaxis and modified hard agar plug (tHAP) assays, all differences were calculated as changes on a log10 scale. Controls were provided by using nonmotile (C. jejuni 81116 flaAB) and nonchemotactic (C. jejuni NCTC 11168 cheY) mutants ([69]) and mucin as negative and positive controls ([10]).
# Tlp3^LBD D170A = Tlp3^LBD D170A (Campylobacter jejuni, UniProt Q0P864); test: biochemical
# Tlp3^LBD D170A, sequence (Q0P864 41-290 T170A): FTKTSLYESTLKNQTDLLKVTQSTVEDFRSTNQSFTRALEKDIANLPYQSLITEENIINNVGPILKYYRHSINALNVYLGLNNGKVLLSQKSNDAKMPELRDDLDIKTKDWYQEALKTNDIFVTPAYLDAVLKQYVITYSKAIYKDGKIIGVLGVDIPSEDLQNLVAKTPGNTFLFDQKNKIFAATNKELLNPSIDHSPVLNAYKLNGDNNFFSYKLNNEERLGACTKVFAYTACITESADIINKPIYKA
# Tlp3^LBD D196A = Tlp3^LBD D196A (Campylobacter jejuni, UniProt Q0P864, D196A); test: biochemical
# Tlp3^LBD D196A, sequence (Q0P864 41-290 D196A): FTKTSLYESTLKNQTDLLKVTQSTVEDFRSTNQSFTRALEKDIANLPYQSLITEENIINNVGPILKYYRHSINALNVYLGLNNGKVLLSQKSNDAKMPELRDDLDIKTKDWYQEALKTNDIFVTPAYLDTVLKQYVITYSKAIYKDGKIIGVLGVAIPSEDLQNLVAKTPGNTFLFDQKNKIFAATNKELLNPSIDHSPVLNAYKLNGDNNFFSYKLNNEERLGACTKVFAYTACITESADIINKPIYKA
# Tlp4 [5] = molecular target: T2, Tlp4; format: binding
# Protocol: (§5) Glycan (>400 monosaccharides or complex glycans) and small molecule arrays containing amino acids and salts were performed as described previously by Day et al. ([67]). Briefly, 1 μg of purified recombinant protein was complexed with anti-His antibody (Cell Signaling Technology) and rabbit anti-mouse/goat anti-rabbit Alexa 555-IgG (Thermo Scientific) at a molar ratio of 1:0.5:0.25 and then incubated on the array for […] in phosphate-buffered saline (PBS). The array slides were scanned at 488/520 nm and analyzed using InnoScan 1100 with MAPIX software. All arrays were performed in triplicate with a total of 12 data points for each glycan tested; the complete data set and MIRAGE (i.e., minimum information regarding a glycomics experiment) results are shown in Tables S3 and S8.
# (§6) Table S8 - Supplementary glycan microarray document based on M IRAGE guidelines. D O I:
# (§7) Classification Guidelines
# (§8) 1. Sample: Glycan Binding Sample
# (§9) Origin: Helicobacter pylori SS1; produced as a recombinant His - tagged protein in E.
# (§10) The preparation of Tlp2,3, and 4 is explained in the Materials and Methods section:
# (§11) Expression and purification of the periplasmic domain of Tlp2,3, and 4.
# (§12) Sample Sample is a His Tagged protein containing only the periplasmic receptor domain of the modifications full length Tlp2,3, and 4transmembrane protein.
# (§13) Please see Materials and Methods: Tlps 2/3/4 bind to a range of ligands, including […]
# (§14) Proteins were complexed with mouse anti- his antibody, with secondary and tertiary AlexaFluor555 antibodies (rabbit anti-mouse, goat anti-rabbit) at a molar ratio of 4:2:1.
# (§15) The protein/antibody complex was incubated on ice for 10 mins prior to placing on the Assay protocol array. Arrays were performed with 1 µg of complexed protein incubated on the array for 20 min. Arrays were then washed 3 times in Array PBS (PBS + 2mM MgCl2 + 2mM CaCl2) then dried by centrifugation for 3 min at 300 x g . Scanning was performed us ing an Innopsys InnoScan 1100AL and analyzed using Mapix (Innopsys). Yes/no binding was determined by six positive replicate spots in three replicate experiments. Positive […]
# (§16) Glycan Glycans in this study are listed in Table S2 and is a published library in doi:
# (§17) Glycans were prepared in one of two ways for printing:
# (§18) Glycan 1. Glycans (with IDs in number/letter format; e.g. 1A, 4C, 7K) were sourced modifications commercially from Dextra Laboratories, Elicityl and Carbosythn and were made into glycoamines using the protocol published in Day et al 2009 (doi:
# (§19) Glycan arrays: We only use glycan arrays as a yes/no binding tool. Due to this we look only at binding that is unambiguously above background vs lack of binding above background. Average background + 3x standard deviation of the background of 20 sets of 4 spots of DMF:DMSO only spots is applied to determine if binding observed is […]
# (§20) Only spots with values equal to or greater than this value were considered as binding from data of any tested slide. These values are slide […]
# (§21) Data Small molecule arrays: We only use amino acid arrays as a yes/no binding tool. Due interpretation to this we look only at binding that is unambiguously above background vs lack of binding above background. Average background + 3x standard deviation of the background of 6 spots of PBS + 2% glycerol only spots is applied to determine if […]
# (§22) Only spots with values equal to or greater than this value were considered as binding from data of any tested slide. These values are slide dependent. […]
# Tlp2 [6] = molecular target: T3, Tlp2; format: binding
# Protocol: as §5, §6, §7, §8, §9, §10, §11, §12, §13, §14, §15, §16, §17, §18, §19, §20, §21, §22
# Tlp2 [7] = format: cell-based, C. jejuni 11168-O; details: nutrient-depleted chemotaxis assay
# Protocol: as §3, §4
# Tlp3 [8] = molecular target: T1, Tlp3; test: Glycan/small molecule arrays with Tlp3; details: yes/no binding
# Protocol: as §5, §6, §7, §8, §9, §10, §11, §12, §13, §14, §15, §16, §17, §18, §19, §20, §21, §22
# WT Tlp3^LBD = test: SPR competition assay (A-B-A inject); format: binding, Campylobacter jejuni; details: 15 seconds after injection-B; glucose 300 µM, fucose 300 μM, malic acid 200 μM
# Protocol: . Competition A-B-A analyses determine the specificity of the potential ligand-binding site preferences of WT Tlp3^LBD. The bound protein is saturated with the first analyte (A), followed by the introduction of a second analyte (B); the assay is designed to show whether a cumulative response is observed after the second analyte (B) is added. A cumulative response indicates two independent binding sites, whereas the lack of a cumulative response indicates a single site where ligands compete for binding, i.e., when analyte A occupies a ligand binding site, analyte B cannot bind. […] All response data were normalized to a 100-Da molecular weight for each analyte, allowing direct comparison of the responses. Both actual RU values and theoretical values are recorded for comparison.
# Figure S6. […] A) Injections are […]
# at 300 μM for 60 seconds). Final responses units (RU) of injections are recorded (indicated by dashed vertical […]
# 81 at 15 s econds after injection- B and l fu cose […]
# and fucose were compet ed was 4.4 RU ± 0.46. As this value sits be low 5 RU, it indicates direct competition for […]
# Final respons es units (RU) of injections ar e re cor ded (indicated […]
# As this value sits between
# 5.07- 13.5 RU, it indicates direct competition for the same site with glucos e replacing some of the bound malic acid during the 60 second injection- B.
# [9] = SPR KD, mean ± SD, NB = no binding, read-out: Tlp4 Affinity
# [10] = SPR KD, mean ± SD, NB = no binding, read-out: Tlp2 Affinity
# T1 sequence (Q0P864 entry or part of it): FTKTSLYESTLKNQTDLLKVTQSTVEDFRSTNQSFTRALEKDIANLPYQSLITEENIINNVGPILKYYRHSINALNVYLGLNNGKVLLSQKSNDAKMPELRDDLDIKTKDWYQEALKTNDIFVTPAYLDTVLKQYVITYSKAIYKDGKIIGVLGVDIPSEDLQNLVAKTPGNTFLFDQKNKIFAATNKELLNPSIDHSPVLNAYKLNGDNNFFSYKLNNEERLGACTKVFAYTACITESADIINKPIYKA
compound,measurement,setting,value
N[C@H]1C(O)O[C@H](CO)[C@@H](O)[C@@H]1O (stereo partly shown) [Glucosamine],Kd,Tlp3 [1],7.1 ± 2.9 µM
same,Kd,Tlp3^LBD D169A,38.4 ± 6.45 µM
same,Kd,Tlp4 [2]; [9],> 200 µM
same,Kd,Tlp2 [3]; [10],> 200 µM
same,Kd,Tlp3^LBD W151A,34.3 ± 12.7 µM
same,Kd,Tlp3^LBD K149A,24.3 ± 2.1 µM
same,Tlp3 CR (chemoresponse),Tlp3 [4],R
same,Kd,Tlp3^LBD D170A,39.7 ± 8.6 µM
same,Kd,Tlp3^LBD D196A,45.5 ± 7.3 µM
CSCC[C@H](N)C(=O)O [Methionine],binding to Tlp4 on glycan/small molecule array,Tlp4 [5],bound
same,binding to Tlp2 on glycan/small molecule array,Tlp2 [6],bound
same,Kd,Tlp3 [1]; read-out: Tlp3 Affinity,> 200 µM
same,Kd,Tlp4 [2],6 ± 4.7 µM
same,Kd,Tlp2 [3],1.9 ± 1.2 µM
N[C@@H](CS)C(=O)O [Cysteine],binding to Tlp4 on glycan/small molecule array,Tlp4 [5]; yes/no binding,bound
same,binding to Tlp2 on glycan/small molecule array,Tlp2 [6]; yes/no binding,bound
same,Kd,"Tlp3 [1]; SPR KD, mean ± SD, NB = no binding, read-out: Tlp3 Affinity",> 200 µM
same,Kd,Tlp4 [2]; [9],5.7 ± 5.8 µM
same,Kd,Tlp2 [3]; [10],10.8 ± 3.3 µM
same,chemotactic response via Tlp2,Tlp2 [7],did not generate any significant chemotactic response; also recorded: did not affect the chemotactic movement
OC[C@H]1OC(O)[C@H](O)[C@@H](O)[C@@H]1O (stereo partly shown) [Glucose],binding to Tlp4 on glycan/small molecule array,Tlp4 [5]; yes/no binding,interacted
same,binding to Tlp2 on glycan/small molecule array,Tlp2 [6]; yes/no binding,interacted
same,binding to Tlp3 on glycan/small molecule array,Tlp3 [8],interacted
same,Kd,Tlp4 [2]; [9],18.3 ± 1.1 µM
same,Kd,Tlp2 [3]; [10],18.1 ± 2.2 µM
same,SPR response of single analyte,WT Tlp3^LBD,5.07 RU
CC[C@H](C)[C@H](N)C(=O)O [Isoleucine],Kd,Tlp4 [2]; [9],> 200 µM
same,Kd,Tlp2 [3]; [10],> 200 µM
